# Assay results as given in patent publication EP0579622B1, “NEW PHENOL ETHERS, PROCESS FOR PRODUCING THE SAME AND MEDICAMENTS CONTAINING THESE COMPOUNDS” (BOEHRINGER MANNHEIM GMBH, priority 1991, dated 1992).
# pIC50: −log10 of the molar value.
# How the values were obtained:
# [1] = tested on: P388D.1 murine Makrophagen; assay: Inhibition of LDL-oxidation-dependent cholesterol ester formation in P388 macrophages; format: cell-based; settings: 10 µm test substance, 18 Stunden, control without LDL 0.44, control + LDL 1.81
# Method: (§1) Die neuen Phenolether wirken LDL-protektiv. Bei Inkubation des LDL it Redoxmetallen hemmen sie die Bildung von thiobarbitursäure-reaktiven Lipidperoxiden (Tab. 1), bei der Oxidation des LDL durch Lipoxydase wird eine selektive Hemmwirkung deutlich (Tab. 2). Unter Testbedingungen, die zu einem wirksamen LDL-Schutz führen, wird die Cholesterinesterbildung in kultivierten Makrophagen gehemmt (Tab. 3).
# 125 µg/ml LDL-Protein wurde in F 10-Medium +1 µM Cu⁺⁺ für 5 Stunden inkubiert, um LDL-Antioxidantien zu depletieren. Dann wurden P388D.1 murine Makrophagen (1 x 10⁶ Zellen/ml) in F 10-Medium + 10 % FCS für 18 Stunden mit diesem Ansatz weiter inkubiert. Unter diesen Versuchsbedingungen bleibt das Verhältnis freies Cholesterin (FC)/Protein konstant bei 0.2 µg/mg, während die Cholesterinester in Abhängigkeit von LDL im Medium in den P388D.1 Makrophagen ansteigen, hier ausgedrückt als Anstieg des Verhältnisses von Cholesterinester/freiem Cholesterin […]. Tabelle 4
# [2] = tested on: LDL; assay: Inhibition of Cu++-dependent LDL oxidation (TBARS formation); format: biochemical; settings: 10 µM Testsubstanz, 125 µg/ml LDL-protein + 10 µM Cu++, 37° C
# Method: as §1
# 125 µg/ml LDL-protein + 10 µM Cu⁺⁺ wurden bei 37° C in 2 ml TN-Puffer (20 mM Tris ph 8, 150 mM NaCl) in An- und Abwesenheit von 10 µM Testsubstanz inkubiert. Die Bildung von LDL-Oxidationsprodukten wurde anhand thiobarbitursäurereaktiver Substanzen (TBARS) bei OD532 16 und 23 Stunden nach Beginn der Inkubation gemessen. Tabelle 2
# [3] = tested on: arteriosklerotischen Arterienwandgewebe; assay: Reduction of LDL catabolism in arteriosclerotic arterial wall tissue (131J-TDS-LDL incorporation); format: in vivo; settings: cholesterol-fed Kaninchen, 0.2 % Testsubstanz in diet for 10 Tage, 24 Stunden after LDL infusion, thorakale Aorta; mean ± SEM (range); control 65.7 ± 3.9
# Excerpt: Beim arteriosklerotischen Kaninchen ist die Wirkung der neuen Phenolether direkt am arteriosklerotischen Plaque nachzuweisen. 131I-TDS-LDL, ein Radioiod-LDL, das von den Zellen nach oxydativer Modifikation aufgenommen wird, akkumuliert nach i.v. Gabe massiv im Plaquegewebe. Die neuen Phenolether hemmen signifikant und massiv den LDL-Katabolismus und damit die Cholesterinüberladung der Arterienwandzellen. Daraus resultiert langfristig die Hemmung des Wachstums der Läsionen (Tab. 4).
# Jeweils 6 Kaninchen in der Kontrollgruppe und Bsp.l-Gruppe, bzw. 3 Kaninchen in der Probucol-Gruppe für 3 Monate mit 0.5 % Cholesterin-fettreicher Kaninchendiät gefüttert. Die Tiere der verschiedenen Gruppen haben S-Cholspiegel von 1028±99 (771-1358) - 1155±200 (655-1787) mg % am Ende der Fütterungsphase und- ein Körpergewicht von 3050-3680 g erreicht. Die Tiere erhalten dann für 10 Tage 0.2 % Testsubstanz in der fettreichen Diät und anschließend eine Infusion von ¹³¹J-Deoxysorbitol-LDL. Der Einbau von ¹³¹J-Deoxysorbitol in den Arterienwandzellen erfolgt ganz überwiegend in der arteriosklerotischen Läsion und ermöglicht die Quantifizierung des LDL-Umsatzes in den Zellen. 24 Stunden nach der Infusion des LDL werden die Tiere getötet und die thorakale Aorta präpariert. […]
# [4] = biological target: T1, Lipoxydase aus Sojabohne (Glycine max, UniProt P08170); assay: Inhibition of LDL oxidation by lipoxydase (diene formation at A 234); format: biochemical; settings: 100 µg LDL-Protein, 500 U/ml Lipoxydase, 37° C, 0-10 µM Testsubstanz, diene formation over 3 h
# T1 construct: purchased Sigma, München
# T1 sequence (P08170 1-839): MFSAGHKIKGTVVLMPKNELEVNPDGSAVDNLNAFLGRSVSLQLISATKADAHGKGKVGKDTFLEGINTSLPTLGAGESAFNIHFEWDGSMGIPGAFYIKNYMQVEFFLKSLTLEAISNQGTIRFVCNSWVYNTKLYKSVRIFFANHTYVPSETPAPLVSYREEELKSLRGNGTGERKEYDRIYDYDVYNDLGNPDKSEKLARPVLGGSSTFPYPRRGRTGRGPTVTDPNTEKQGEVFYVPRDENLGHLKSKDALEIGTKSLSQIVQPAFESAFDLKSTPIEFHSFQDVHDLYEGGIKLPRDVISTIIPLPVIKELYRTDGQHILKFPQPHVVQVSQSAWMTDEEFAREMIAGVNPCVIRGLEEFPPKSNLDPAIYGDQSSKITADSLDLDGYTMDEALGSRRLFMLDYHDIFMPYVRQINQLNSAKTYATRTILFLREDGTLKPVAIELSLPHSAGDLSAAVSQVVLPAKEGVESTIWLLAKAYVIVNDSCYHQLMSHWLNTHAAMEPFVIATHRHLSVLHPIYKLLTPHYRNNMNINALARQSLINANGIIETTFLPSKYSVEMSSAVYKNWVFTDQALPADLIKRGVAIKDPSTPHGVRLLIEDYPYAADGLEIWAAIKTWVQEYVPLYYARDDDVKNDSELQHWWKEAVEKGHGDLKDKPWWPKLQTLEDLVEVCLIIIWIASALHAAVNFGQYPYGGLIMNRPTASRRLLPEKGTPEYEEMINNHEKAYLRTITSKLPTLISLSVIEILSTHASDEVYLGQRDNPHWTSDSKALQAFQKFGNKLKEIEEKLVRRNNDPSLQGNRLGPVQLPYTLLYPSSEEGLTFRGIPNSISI
# Method: (Tab. 2). […] Die Bildung von […] aus der Oxidation […] des LDL wird bei A 234 über 3 h verfolgt und ist im Kontrollansatz ca. 0.075/h. Die Inhibition der Dienbildung dient als Maß der Lipoxydaseaktivität am LDL-substrat.
pIC50 [4],Structure (SMILES),CE/FC [1] [µg/µg],"TBARS (OD 532) % ([2]; 16 Std., control 75) [%]","TBARS (OD 532) % ([2]; 23 Std., control 100) [%]",Einbau von 131J-TDS-LDLnorm±SEM ng/(mm³xdt/2) [3]
,"CC(C)(Sc1cc(C(C)(C)C)c(O)c(C(C)(C)C)c1)Sc1cc(C(C)(C)C)c(O)c(C(C)(C)C)c1 [Probucol, 4,4'[Isopropylidendithio]-bis(2,6-di-tert.-butyl), reference compound]",0.52,56,88,84 ± 7.5 (40-144) ng/(mm³xdt/2)
7.30,"CC(C)(C)c1cc(OCCCOc2cc(C(C)(C)C)c(O)c(C(C)(C)C)c2)cc(C(C)(C)C)c1O [Bsp. 1, 1,3-Bis-[4-hydroxy-3,5-di-tert.butyl-phenoxy]propan]",0.48,19,76,"35 ± 1,9 (7-63) ng/(mm³xdt/2)"
